Results from patent EP0775487A1, “TRIAZINE DERIVATIVE AND MEDICINE” (NIPPON SHINYAKU COMPANY, LIMITED, priority 1994, dated 1996).
Read-outs that look alike come from different tables or passages of the source. Marks after values point to notes of the source that are not given here.

Experiments:
[1] = tested on: BCG-LPS-induced fulminant hepatitis; assay: Inhibitory effect on BCG-LPS-induced fulminant hepatitis in mice (antihepatitis effect); type: in vivo, BALB/C mice; details: for Number of deaths/number of animals/used: 50 mg/kg orally 1 hour before LPS i.v., deaths at 48 hours, control mortality 80-100%; for inhibition at 50 mg/kg: Mus musculus, po, 50 mg/kg orally, plasma transaminase at hour 4 after LPS
Protocol: The antihepatitis action of the compound of the invention could be confirmed by the following test in mice. This test is the commonest animal test for evaluating the antihepatitis effect of drugs. It is known that the antihepatitis effect evaluated by this test method is highly correlated with the clinical effect in man (Kondo, Y. et al. Chem. Pharm. Bull. 38, 2887-2889, 1990). Method: Six-week-old male BALB/C mice were intravenously dosed with 1 mg of BCG and after 2 weeks, 50 mg/kg of the test drug was administered orally. Then, after 1 hour, 2.5 µg of lipopolysaccharide (LPS) was injected intravenously to induce hepatitis. To find the LPS-associated mortality, the percentage of deaths at 48 hours was calculated. The mortality in the control group was 80-100%. […] However, for reference's sake, blood was drawn from the orbital vein at hour 4 and the plasma transaminase (GOT, GPT) concentrations were determined. As a reference compound, 2,4-diamino-6-(2,5-dichlorophenyl)-1,3,5-triazine was used.

[2] = tested on: GST-P-positive lesions; assay: Inhibitory effect on hepatic chemooncogenesis in rats (DEN/AAF/hepatectomy precancerous lesion model, GST-P immunostaining); type: in vivo, F344 rats; details: for GST-P^+ area (mm^2/cm^2) mean±S.E. / GST-P^+ foci (N/cm^2) mean±S.E.: 0.01% in chow from week 2 to final day (4-week experiment); for GST-P^+ area (mm^2/cm^2) inhibition (%) / GST-P^+ foci (N/cm^2) inhibition (%): 0.01% in chow, versus own control group
Protocol: Method: Five-week-old male F344 rats (Slc), a precancerous lesion model was constructed using the following protocol in accordance with the method of Solt and Faber (Nature, 263, 702-703, 1976). [formula] • ↑ : DEN 200 mg/kg, i.p. • : 70% hepatectomy • : 0.02% AAF • : Diet or water • ←→ : Drug administration period
Thus, the duration of the experiment being set at 4 weeks, 200 mg/kg of diethylnitrosoamine (hereinafter referred to briefly as DEN) was first administered intraperitoneally. Beginning week 2, drinking water containing 0.02% of 2-acetylaminofluorene (hereinafter referred to briefly as AAF) was given ad libitum. At the beginning of week 3, 70% hepatectomy was performed. The test drug was mixed into the animal chow (F-2, Funabashi Farm) at the concentration of 0.01% and administered from week 2 through the final day of the experiment. The compound of Example 1 was used as the test drug and 2,4-diamino-6-(2,5-dichlorophenyl)-1,3,5-triazine as the reference compound.
On the final day of the experiment, all the animals were sacrificed by cervical dislocation under ether anaesthesia. Immediately a portion of the liver was excised, quick-frozen in dry ice-acetone, and stored until used. From the liver, 8 µm-thick frozen sections were prepared and using Vectastain ABC Kit (Funakoshi Yakuhin), immunostained by the ABC method (an enzyme-labeled antibody method) using anti-glutathione-S-transferase placental form (hereinafter referred to briefly as GST-P) antibody as the primary antibody. Thus, sections were returned to room temperature under anhydrous conditions and immersed in 10 mM phosphate-buffered saline (hereinafter referred to briefly as PBS) at pH 7.2 for 15 minutes. Then, goat normal serum and the primary antibody (a 500-fold dilution, 20 µl) were applied to the section and allowed to react overnight. After the reaction, the section was washed with PBS. Then, anti-rabbit secondary antibody was applied and the reaction was carried out for 30 minutes. After washing with PBS, avidin-biotin complex was applied and allowed to react for 30 minutes. The section was washed with PBS and treated with 0.1% diaminobenzidine (DAB) containing 0.02% of hydrogen peroxide for color development, dehydrated, and sealed.
The number of GST-P-positive lesions per cm^2 liver tissue section was counted under an optical microscope and the area was measured with an image analyzer (SPICCA-II, Japan Avionics). The significance testing of mean values was made by Student's t-test and the result was evaluated at the 5% leval of significance.

[3] = Effect on body weight gain; type: in vivo; details: 1,000 mg/kg administered repeatedly (daily), rats
Protocol: The compound of Example 1 was administered to rats daily to investigate its effect on body weight gain.

[4] = Acute toxicity; type: in vivo, Rats (SD strain); details: 1 g/kg orally by gastric gavage, fasted rats, groups of 5
Protocol: Rats of either sex (SD strain, […]) were used in groups of 5. The animals were deprived of food from the previous day (16-18 hours before) and 1 g/kg of the compound of Example 1 was administered orally by gastric gavage. Then, deaths during the subsequent one-week period were recorded.

SMILES	Number of deaths/number of animals/used [1]	inhibition at 50 mg/kg ([1]; read-out: % Inhibition GOT) [%]	inhibition at 50 mg/kg ([1]; read-out: % Inhibition GPT) [%]	GST-P^+ area (mm^2/cm^2) mean±S.E. [2] [mm^2/cm^2]	GST-P^+ foci (N/cm^2) mean±S.E. [2] [N/cm^2]	GST-P^+ area (mm^2/cm^2) inhibition (%) [2] [%]	GST-P^+ foci (N/cm^2) inhibition (%) [2] [%]	effect on body weight gain [3]	deaths during the subsequent one-week period [4]
CN(CCO)c1nc(N)nc(-c2cc(Cl)ccc2Cl)n1 [Example 5, 2-Amino-4-(2,5-dichlorophenyl)-6-[N-methyl-N-(2-hydroxyethyl)amino]-1,3,5-triazine]	0/10**	43	18	–	–	–	–	–	–
Cl.Cl.NCC1CCN(c2nc(N)nc(-c3cc(Cl)ccc3Cl)n2)C1 (stereo not shown) [Example 62, 2-Amino-4-(2,5-dichlorophenyl)-6-(3-aminomethyl-1-pyrrolidinyl)-1,3,5-triazine dihydrochloride]	0/15**	29	38	–	–	–	–	–	–
Nc1nc(-c2cc(Cl)ccc2Cl)nc(N2CCC(O)C2)n1.O=C(O)/C=C\C(=O)O (stereo not shown) [Example 31, 2-Amino-4-(2,5-dichlorophenyl)-6-(3-hydroxy-1-pyrrolidinyl)-1,3,5-triazine maleate]	1/18**	47	34	–	–	–	–	–	–
Nc1nc(-c2cc(Cl)ccc2Cl)nc(N2CCCC(O)C2)n1 (stereo not shown) [Example 37, 2-Amino-4-(2,5-dichlorophenyl)-6-(3-hydroxy-1-piperidinyl)-1,3,5-triazine]	0/18**	43	38	–	–	–	–	–	–
Cl.Nc1nc(-c2cc(Cl)ccc2Cl)nc(N2CCC[C@H]2CO)n1 [Example 32, (S)-2-amino-4-(2,5-dichlorophenyl)-6-(2-hydroxymethyl-1-pyrrolidinyl)-1,3,5-triazine hydrochloride]	0/18**	62	60	–	–	–	–	–	–
Nc1nc(-c2cc(Cl)ccc2Cl)nc(N2CCCC2)n1 [Example 30, 2-Amino-4-(2,5-dichlorophenyl)-6-pyrrolidino-1,3,5-triazine]	0/18**	45	31	–	–	–	–	–	–
COCCNc1nc(N)nc(-c2cc(Cl)ccc2Cl)n1 [Example 6, 2-Amino-4-(2,5-dichlorophenyl)-6-(2-methoxyethylamino)-1,3,5-triazine]	2/10**	34	29	–	–	–	–	–	–
Cl.Nc1nc(-c2cc(Cl)ccc2Cl)nc(N2CCC[C@@H]2CO)n1 [Example 33, (R)-2-amino-4-(2,5-dichlorophenyl)-6-(2-hydroxymethyl-1-pyrrolidinyl)-1,3,5-triazine hydrochloride]	0/18**	39	41	–	–	–	–	–	–
Cc1ccc(OCCN2CCN(c3nc(N)nc(-c4cc(Cl)ccc4Cl)n3)CC2)cc1 [Example 21, 2-Amino-4-(2,5-dichlorophenyl)-6-[4-[2-(4-methylphenoxy)ethyl]piperazin-1-yl]-1,3,5-triazine]	0/10**	29	10	–	–	–	–	–	–
CN(C)c1nc(N)nc(-c2cc(Cl)ccc2Cl)n1 [Example 3, 2-Amino-4-(2,5-dichlorophenyl)-6-dimethylamino-1,3,5-triazine]	0/10**	37	38	–	–	–	–	–	–
Nc1nc(-c2cc(Cl)ccc2Cl)nc(N2CCC(=O)CC2)n1 [Example 56, 2-Amino-4-(2,5-dichlorophenyl)-6-(4-oxo-1-piperidinyl)-1,3,5-triazine]	0/15**	38	37	–	–	–	–	–	–
CNc1nc(N)nc(-c2cc(Cl)ccc2Cl)n1 [Example 2, 2-Amino-4-(2,5-dichlorophenyl)-6-methylamino-1,3,5-triazine]	0/10**	46	33	–	–	–	–	–	–
Nc1nc(-c2cc(Cl)ccc2Cl)nc(N2CCOCC2)n1 [Reference Example 5, 2-Amino-4-(2,5-dichlorophenyl)-6-morpholino-1,3,5-triazine]	0/18**	58	45	–	–	–	–	–	–
Nc1nc(-c2cc(Cl)ccc2Cl)nc(N(CCO)CCO)n1 [Example 1, 2-amino-4-[N,N-bis(2-hydroxyethyl)amino]-6-(2,5-dichlorophenyl)-1,3,5-triazine]	2/10**	37	17	0.8± 0.2	41.5± 5.2	48.6	28.9	did not affect body weight gain	no death was found at all
Nc1nc(N)nc(-c2cc(Cl)ccc2Cl)n1 [Reference Compound, 2,4-diamino-6-(2,5-dichlorophenyl)-1,3,5-triazine, reference compound]	0/10*	21	-6	3.6±0.7	67.9± 8.7	7.7	9.7	–	–
